The values that follow come from patent publication US20090029855A1, “Quinoline Derivatives and Their Use as Pesticides” (priority 2006, published 2009).

Common to all, as to type: in vivo
In data set [1] the test system is House Fly (Musca domestica). The experiment in a line: House fly glass vial (glass contact) assay. The procedure:
(§1) Glass vials (20 ml scintillation vials) were treated with 0.44 ml of a solution of active ingredient in acetone. Each vial was rolled uncapped for ca. 10 minutes to allow the active ingredient to completely coat the vial and to allow for full drying of the acetone. Six insects or ticks were placed into each vial, with 5 vials per treatment rate. The vials are kept at 22° C. and are observed for treatment effects at various time intervals.

The subject of data set [2] is Subterranean Termites (Reticulitermes flavipes). The experiment in a line: Termite soil incorporation assay. To be noted: 100 ppm after 9 days. The procedure:
(§2) Soil was prepared by adding stock solutions (active dissolved in acetone) to 100 g sandy loam soil to make 1, 10, and 100 ppm batches. Jars of soils were rolled on a jar roller to mix thoroughly and then allowed to vent over night with the acetone evaporating off.
Subterranean termite bioassays were conducted in 50×15 mm Petri dishes and were prepared with a layer of 1% agar (2 ml) and then 2 g of dry treated soil. A 1 cm^2 piece of filter paper, moistened with 1 drop of distilled water was added to each dish as a source of cellulose food. Each dish was then infested with 15 eastern subterranean termite workers, Reticulitermes flavipes. Five replicates were setup per treatment rate. Mortality was observed daily up to 7 days with moribund and dead termites removed at each reading.

Data set [3] deals with Acrobat Ant (Crematogaster sp.). The experiment in a line: Acrobat ant glass vial (glass contact) assay. The procedure:
as §1

For data set [4], the system named is Yellowfever Mosquitos (Aedes Aegypti), 4th instar larvae. The data set is described as follows: Activity against yellowfever mosquitos via water treatment. The procedure: The test compound (1 Vol % in acetone) was applied to 9 ml distilled water In polystyrene plastic 6-well plates. Treatment rates were applied 1 and 10 ppm. Ten, 4th instar yellowfever mosquito larvae, Aedes aegypti, were added to each well in 1 ml of distilled water. The test dishes were maintained at 22° C. and observed daily for mortality, up to 5 days after treatment. Each treatment was replicated in 6 wells.

In data set [5] the test system is Eastern Subterranean Termites (Reticulitérmes Flávipes). The data set is described as follows: Activity against eastern subterranean termites via termite filter paper bait. The procedure:
Toxicant treatments (0.1 and 0.3% test compound w/w) were applied to 4.25 cm (diam.) filter papers in acetone solution. Treatment levels (% test compound) were calculated on basis of a mean weight per filter paper of 106.5 mg. Treatment solutions were adjusted to provide the quantity of toxicant (mg) required per paper in […] of acetone. Acetone only was applied for untreated controls. Treated papers were vented to evaporate the acetone, moistened with 0.25 ml water, and placed in corresponding test arenas.
Termite bait bioassays were conducted in 100×15 mm Petri dishes with 1 teaspoon fine sand spread in a thin layer over the bottom of each dish. An additional 0.25 teaspoon sand was piled against the side of each dish. The sand was moistened with 2.7 ml water applied to the piled sand. Water was added to dishes as needed over the course of the bioassays to maintain high moisture content. Bioassays had one treated filter (on the sand) and 30 termite workers per test dish. Each treatment level was replicated in 3 test dishes. Test dishes were maintained at approximately 30° C. and 85% humidity for 14 days and observed daily for mortality.

Data set [6] relates to Yellowfever Mosquito (Aedes aegypti). The experiment in a line: Yellowfever mosquito glass vial (glass contact) assay. The procedure: as §1
Data set [7] has as its system Acrobat Ant (Crematogaster sp.). The experiment in a line: Acrobat ant soil incorporation assay. The procedure:
as §2
Ant bioassays were conducted in 100×20 mm Petri dishes and were prepared with a layer of 1% agar (7 ml) and then 12.75 g of dry treated soil. A cotton pellet (#2) soaked with a 10% sugar solution was added to each dish in a micro-weigh boat as a source of moisture and food. Each dish was then infested with 15 acrobat ant workers, Crematogaster sp. Three replicates were setup per treatment rate. Mortality was observed daily up to 7 days with moribund and dead ants removed at each reading.

Data set [8] relates to Tobacco Budworm (Heliothis Virescens). The data set is described as follows: Activity against tobacco budworm, eggs in microtiterplates. The note with it: 144 h, eggs sprayed, 6 days. The procedure:
The active compounds were formulated in 1:3 DMSO:water. 15 to 25 eggs were placed into microtiterplates filled with diet. The eggs were sprayed with 10 μl of the test solution, the plates were sealed with pierced foils and kept at 27-29° C. and 75-85% humidity under fluorescent light for 6 days. Mortality was assessed on the basis of the agility and of comparative feeding of the hatched larvae. Tests were replicated 2 times.

The subject of data set [9] is Cotton Aphid (Aphis Gossypil), mixed life stages. The data set is described as follows: Cotton aphid, mixed life stages, cotton cotyledon dip. The note with it: 120 h, after 5 days, read-out: mortality in comparison with untreated controls. The source says: The active compounds were formulated in 50:50 acetone:water and 100 ppm Kinetic® surfactant.
Cotton plants at the cotyledon stage were infested prior to treatment by placing a heavily infested leaf from the main aphid colony on top of each cotyledon. The aphids were allowed to transfer overnight and the host leaf was removed. The infested cotyledons were then dipped and agitated in the test solution for 3 seconds and allowed to dry in a fume hood. Test plants were maintained under fluorescent lighting in a 24-hr photoperiod at 25° C. and 20-40% relative humidity. Aphid mortality on the treated plants, relative to mortality on untreated check plants, was determined after 5 days.

The test system of data set [10] is Silverleaf whitefly (Bemisia Argentifolii). The experiment in a line: Silverleaf whitefly, cotton cotyledon dip. To be noted: 72 h, 3 days after treatment, read-out: mortality in comparison with untreated controls. The procedure:
(§3) The active compounds were formulated in 50:50 acetone:water and 100 ppm Kinetic™ surfactant.
Selected cotton plants were grown to the cotyledon state (one plant per pot). The cotyledons were dipped into the test solution to provide complete coverage of the foliage and placed in a well-vented area to dry. Each pot with treated seedling was placed in a plastic cup and 10 to 12 whitefly adults (approximately 3-5 day old) were introduced. The insects were colleted using an aspirator and an 0.6 cm, non-toxic Tygon tubing connected to a barrier pipette tip. The tip, containing the collected insects, was then gently inserted into the soil containing the treated plant, allowing insects to crawl out of the tip to reach the foliage for feeding. The cups were covered with a re-usable screened lid (150 micron mesh polyester screen PeCap from Tetko Inc). Test plants were maintained in the holding room at about 25° C. and 20-40% relative humidity for 3 days avoiding direct exposure to the fluorescent light (24 hour photoperiod) to prevent trapping of heat inside the cup. Mortality was assessed 3 days after treatment of the plants.

The subject of data set [11] is Diamond Back Moth (plutella Xylostella). The data set is described as follows: Activity against diamond back moth, cabbage leaf disk dip. The note with it: foliar, after 72 h, read-out: mortality in comparison with untreated controls. As to the method: 13. Activity Against Diamond Back Moth (plutella Xylostella) The active compounds were formulated in 50:50 acetone:water and 0.1% (vol/vol) Alkamuls EL 620 surfactant. A 6 cm leaf disk of cabbage leaves was dipped in the test solution for 3 seconds and allowed to air dry in a Petri plate lined with moist filter paper. The leaf disk was inoculated with 10 third instar larvae and kept at 25-27° C. and 50-60% humidity for 3 days. Mortality was assessed after 72 h of treatment.

The test system of data set [12] is Mediterranean Fruitfly (Ceratitis Capifata). The data set is described as follows: Activity against Mediterranean fruitfly, eggs in microtiterplates. To be noted: 144 h, eggs sprayed, 6 days. The procedure: The active compounds were formulated in 1:3 DMSO:water. 50 to 80 eggs were placed into microtiterplates filled with 0.5% agar-agar and 14% diet in water. The eggs were sprayed with 5 μl of the test solution, the plates were sealed with pierced foils and kept at 27-29° C. and 75-85% humidity under fluorescent light for 6 days. Mortality was assessed on the basis of the agility of the hatched larvae. Tests were replicated 2 times.

Data set [13] relates to Southern Armyworm (Spodoptera Eridanid), 2nd-3rd instar larvae. The data set is described as follows: Southern armyworm, lima bean foliage dip. The note with it: foliar, 96 h, after 4 days, read-out: mortality in comparison with untreated controls. As to the method: The active compounds were formulated as a 10.000 ppm solution in a mixture of 35% acetone and water, which was diluted with water, if needed.
Sieva lima bean foliage, expanded to the first true leaves, were dipped and agitated in the test solution for 3 seconds and then allowed to dry in a fume hood. The treated plant was then placed in 25-cm plastic perforated zip enclosure bags, ten 2nd-instar larvae were added, and the bags sealed. After 4 days, observations were made of mortality, plant feeding, and of any interference with larval growth.

Data set [14] has as its system Vetch Aphid (Megoura Viciae). The data set is described as follows: Activity against vetch aphid, bean leaf disks in microtiterplates. The note with it: foliar, 144 h, leaf disks sprayed, 6 days. The procedure:
The active compounds were formulated in 1:3 DMSO:water. Bean leaf disks were placed into microtiterplates filled with 0.8% agar-agar and 2.5 ppm OPUS™. The leaf disks were sprayed with 2.5 μl of the test solution and 5 to 8 adult aphids were placed into the microtiterplates which were then closed and kept at 22-24° C. and 35-45% under fluorescent light for 6 days. Mortality was assessed on the basis of vital, reproduced aphids. Tests were replicated 2 times.

The subject of data set [15] is Cowpea Aphid (Aphis Craccivora). The data set is described as follows: Activity against cowpea aphid, sprayed potted cowpea plants. To be noted: population reduction recorded after 24, 72 and 120 hours, read-out: mortality in comparison with untreated controls. The procedure: The active compounds were formulated in 50:50 acetone:water. Potted cowpea plants colonized with 100-150 aphids of various stages were sprayed after the pest population has been recorded. Population reduction was recorded after 24, 72, and 120 hours.

The subject of data set [16] is Boll Weevil (Anthonomus grandis). The experiment in a line: Activity against boll weevil, eggs in microtiterplates. To be noted: eggs sprayed, 3 to 5 days. The procedure:
The active compounds were formulated in 1:3 DMSO:water. 10 to 15 eggs were placed into microtiterplates filled with 2% agar-agar in water and 300 ppm formaline. The eggs were sprayed with 20 μl of the test solution, the plates were sealed with pierced foils and kept at 24-26° C. and 75-85% humidity with a day/night cycle for 3 to 5 days. Mortality was assessed on the basis of the remaining unhatched eggs or larvae on the agar surface and/or quantity and depth of the digging channels caused by the hatched larvae. Tests were replicated 2 times.

Data set [17] relates to Green Peach Aphid (Myzus Persicae). The data set is described as follows: Green peach aphid, pepper plant leaf dip. The note with it: foliar, 120 h, after 5 days, read-out: mortality in comparison with untreated controls. The procedure: as §3
Pepper plants in the 2nd leaf-pair stage (variety California Wonder) were infested with approximately 40 laboratory-reared aphids by placing infested leaf sections on top of the test plants. The leaf sections were removed after 24 hr. The leaves of the intact plants were dipped into gradient solutions of the test compound and allowed to dry. Test plants were maintained under fluorescent light (24 hour photoperiod) at about 25° C. and 20-40% relative humidity. Aphid mortality on the treated plants, relative to mortality on check plants, was determined after 5 days.

In data set [18] the test system is Colorado Potato Beetle (Leptinotarsa Decemlineata). The data set is described as follows: Colorado potato beetle, potato leaf dip in Petri dishes. The note with it: foliar, 120 h, 5 days after treatment, read-out: mortality in comparison with untreated controls. The procedure:
Potato plants were utilized for bioassays. Excised plant leaves were dipped into 1:1 acetone/water dilutions of the active compounds. After the leaves had dried, they were individually placed onto water-moistened filter paper on the bottoms of Petri dishes. Each dish was infested with 5-7 larvae and covered with a lid. Each treatment dilution was replicated 4 times. Test dishes were held at approximately 27° C. and 60% humidity. Numbers of live and morbid larvae were assessed in each dish at 5 days after treatment application, and percent mortality was calculated.

In data set [19] the test system is 2-Spotted Spider Mite (Tetranychus Urticae, OP-Resistant Strain). The data set is described as follows: 2-spotted spider mite, lima bean plant dip. To be noted: 300 ppm; after 5 days. The procedure: as §3
Sieva lima bean plants with primary leaves expanded to 7-12 cm were infested by placing on each a small piece from an infested leaf (with about 100 mites) taken from the main colony. This was done at about 2 hours before treatment to allow the mites to move over to the test plant to lay eggs. The piece of leaf used to transfer the mites was removed. The newly-infested plants were dipped in the test solution and allowed to dry. The test plants were kept under fluorescent light (24 hour photoperiod) at about 25° C. and 20-40% relative humidity. After 5 days, one leaf was removed and mortality counts were made.

As to `O=S(=O)(NCc1ccnc2ccccc12)c1ccc(-c2ccc(Cl)cc2Cl)cc1` [I-1], the mortality is 30% in [1] (10 ppm after 48 hours); 95% in data set [2]; 7% in data set [3] (100 ppm after 4 days); 100% in [4] (1 ppm after 3 days); 99% in [5] (0.1% w/w after 7 days); 37% in data set [6] (10 ppm after 48 hours). Besides, the mortality in [7] (100 ppm after 7 days) was found to be 36%.
Turning to `O=S(=O)(NCc1ccnc2ccccc12)c1ccc(-c2cc(Cl)ccc2Cl)cc1` [I-8, 2′,5′-dichloro-biphenyl-4-sulfonicacid (quinoline-4-ylmethyl)-amide], the mortality at 2500 ppm in data set [8], in [12], in [14] and in [16] was no less than 75% each time. Moreover, the mortality at 300 ppm in [9] was no less than 80%; in data set [10], no less than 70%; in data set [11], no less than 75%; in [13], no less than 80%; in [15], no less than 80%; in data set [17], no less than 75%.
For the molecule `O=S(=O)(NCc1ccnc2ccccc12)c1ccc(-c2ccc(C(F)(F)F)cc2C(F)(F)F)cc1` [I-10], the mortality was found to be 80% in [1] (10 ppm after 24 hours); 84% in [2]; 86% in data set [3] (100 ppm after 2 days); 52% in [4] (10 ppm after 5 days); 86% in data set [5] (0.3% w/w after 14 days); 100% in [6] (10 ppm after 24 hours). The mortality in data set [7] (100 ppm after 3 days) worked out at 100%.
As for `O=S(=O)(NCc1ccnc2c(Cl)cccc12)c1ccc(-c2ccc(C(F)(F)F)cc2C(F)(F)F)cc1` [I-22, 2′,4′-bis-trifluoromethyl-biphenyl-4-sulfonic acid (8-chloroquinoline-4-yl-methyl)-amide], the mortality at 300 ppm in data set [18] was no less than 75%; in [13] it was no less than 80%.
In the case of `Cc1cc(C(F)(C(F)(F)F)C(F)(F)F)ccc1-c1ccc(S(=O)(=O)NCc2ccnc3ccccc23)cc1` [I-46], the “mortality in comparison with untreated controls” value in data set [19] was “at least 70%”.
As for `O=S(=O)(NCc1ccnc2c(F)cccc12)c1ccc(Br)cc1` [II-5, 4-bromo-N-(8-fluoro-quinolin-4-ylmethyl)-benzenesulfonamide], the mortality at 2500 ppm in data set [16] is no less than 75%.

One may read the mortality as the percentage killed.
